The target of test [1] is T1, Adenosine receptor A2a (Rattus norvegicus, UniProt P30543). Nature of the test: Displacement of [3H]-CGS- 21680 from Adenosine A2A receptor of rat striatal membranes. It is filed as cell membranes, Membrane. In general terms: Loss of bound radioactivity is the signal in a displacement assay; it reports binding, not function.
For test [2], the target named is T2, Adenosine receptor A1 (Rattus norvegicus, UniProt P25099).
T2 sequence (P25099 whole entry): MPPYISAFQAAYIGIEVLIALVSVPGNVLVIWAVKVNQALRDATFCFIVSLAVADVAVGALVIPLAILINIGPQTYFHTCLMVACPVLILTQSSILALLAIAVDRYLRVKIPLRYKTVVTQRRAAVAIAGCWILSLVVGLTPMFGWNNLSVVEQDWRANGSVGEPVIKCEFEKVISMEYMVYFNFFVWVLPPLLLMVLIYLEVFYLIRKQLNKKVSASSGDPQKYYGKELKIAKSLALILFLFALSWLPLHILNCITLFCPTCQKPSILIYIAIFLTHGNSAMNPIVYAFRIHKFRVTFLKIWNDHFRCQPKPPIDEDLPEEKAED
Nature of the test: Displacement of [3H]DPCPX from rat cortical membranes Adenosine A1 receptor. It counts as cell membranes, Membrane.

Test [3] has as its target T3, Adenosine receptor A3 (Homo sapiens) (UniProt P0DMS8).
T3 sequence (whole entry): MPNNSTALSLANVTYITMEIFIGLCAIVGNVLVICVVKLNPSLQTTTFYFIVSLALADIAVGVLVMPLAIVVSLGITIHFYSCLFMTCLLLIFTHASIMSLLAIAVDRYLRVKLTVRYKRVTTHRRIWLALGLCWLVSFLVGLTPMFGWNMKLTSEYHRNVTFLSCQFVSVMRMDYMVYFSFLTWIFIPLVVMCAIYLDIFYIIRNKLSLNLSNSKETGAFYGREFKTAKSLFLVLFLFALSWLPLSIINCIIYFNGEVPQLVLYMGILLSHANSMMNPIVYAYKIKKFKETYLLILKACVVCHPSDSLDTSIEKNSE
Nature of the test: Percentage of [35S]GTP-gamma-S, binding to the human adenosine A3 receptor stimulated at 10E-4 M. It counts as functional. (GTPγS is a poorly hydrolysed GTP analogue; its binding reports G protein activation.)

The target of test [4] is T4, Adenosine receptor A3 (Homo sapiens, UniProt P0DMS8).
T4 sequence (P0DMS8 whole entry): T3 sequence (whole entry)
Nature of the test: Effective concentration for stimulation of [35S]GTP-gamma-S, binding to human adenosine A3 receptor. It is filed as functional.

Test [5] addresses T3, Adenosine receptor A3 (Homo sapiens). Nature of the test: Inhibition of forskolin-stimulated cAMP production mediated by human adenosine A3 receptor expressed in CHO cells at 10 uM. It counts as functional, cell-based. On the technique in general: cAMP levels reflect the balance of adenylyl cyclase and phosphodiesterase activity.
For test [6], the target named is T4, Adenosine receptor A3. Nature of the test: Binding affinity at human Adenosine A3 receptor expressed in HEK 293 cells by [125I]AB-MECA displacement. It is filed as cell-based, HEK293.
The target of test [7] is Adenosine receptors; A1 & A3 (Rattus norvegicus) (UniProt P25099+P28647). Nature of the test: Ratio of displacement of A1 receptor to A3 receptor. It is filed as protein assay.
The target of test [8] is T3, Adenosine receptor A3 (Homo sapiens). Nature of the test: Inhibition of forskolin-induced c-AMP production by adenosine A3 receptor with 10 uM NECA. It is filed as functional.
The target of test [9] is T5, Adenosine receptor A1 (Rattus norvegicus) (UniProt P25099).
T5 sequence (whole entry): T2 sequence (P25099 whole entry)
Nature of the test: Percentage displacement of [3H]DPCPX from rat cortical membranes Adenosine A1 receptor at 10 uM. It counts as cell membranes. Conditions: Membrane.

Test [10] has as its target Adenosine receptor A2a (Rattus norvegicus) (UniProt P30543). Nature of the test: Percentage displacement of [3H]-CGS- 21680 from Adenosine A2A receptor of rat striatal membranes at 10 uM. Conditions: Membrane. It counts as cell membranes.
In test [11] the target is T4, Adenosine receptor A3. Nature of the test: Displacement of [125I]AB-MECA from human Adenosine A3 receptor expressed in HEK 293 cells. It counts as cell-based, HEK293.
Test [12] addresses T1, Adenosine receptor A2a. Nature of the test: Displacement of [3H]-CGS- […] from Adenosine A2A receptor of rat striatal membranes. It counts as cell membranes, Membrane.

Adenosine receptor A2a (Rattus norvegicus), sequence (P30543 whole entry): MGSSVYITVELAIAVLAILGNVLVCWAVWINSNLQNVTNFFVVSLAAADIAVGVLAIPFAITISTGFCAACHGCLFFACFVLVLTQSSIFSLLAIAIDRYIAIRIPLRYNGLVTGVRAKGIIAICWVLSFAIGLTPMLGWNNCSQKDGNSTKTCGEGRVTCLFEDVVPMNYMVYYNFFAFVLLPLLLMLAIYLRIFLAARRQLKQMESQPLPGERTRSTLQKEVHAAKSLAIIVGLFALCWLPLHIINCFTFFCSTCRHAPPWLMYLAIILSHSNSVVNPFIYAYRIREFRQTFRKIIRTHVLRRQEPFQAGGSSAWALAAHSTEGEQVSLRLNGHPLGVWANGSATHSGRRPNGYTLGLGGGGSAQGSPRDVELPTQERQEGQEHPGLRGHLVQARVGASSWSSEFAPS
T1 sequence (P30543 whole entry): as above

A word on the Ki: it is the equilibrium dissociation constant of an inhibitor or competing ligand from its target. The low end stands for a stronger hold on the target, the high end for a looser hold on the target. As a reminder, the EC50 is the midpoint of the concentration-response curve. A word on the inhibition: it is how much of the control response was suppressed. Lower therefore signals a response near the control. For the compound `CSC[C@H]1O[C@@H](n2cnc3c(NCc4cccc(I)c4)ncnc32)[C@H](O)[C@@H]1O`, the Ki stood at 1.82 µM in [1], 0.61 µM in test [2] and 0.00878 µM in test [6]. Further, the Radioligand bound in [3] turned out to be 41%. In addition, a half-maximal response in test [4] (EC50) required 0.027 µM. The inhibition is 64% in test [5] and 87% in [8]. For the same compound, the Ratio in test [7] was found to be 69.5.
On to `CSC[C@H]1O[C@@H](n2cnc3c(NCc4ccccc4)ncnc32)[C@H](O)[C@@H]1O`, for which the Displacement in [9] turned out to be 31%; in test [10], 25%. This compound also had a Radioligand bound in test [3] of 52%. Besides, a half-maximal response in [4] (EC50) required 0.473 µM. The inhibition in test [5] amounted to 60%; in test [8], 93%. In addition, in test [6], the affinity corresponds to a Ki of 0.128 µM. In [7], the Ratio is more than 78.1.
In test [9], `O[C@@H]1[C@H](O)[C@@H](CCl)O[C@H]1n1cnc2c(NCc3ccccc3)ncnc21` registered a Displacement of 47%. For the same compound, the results for the Ki in [1] and in [6] were 0.641 µM and 1.86 µM, respectively. The Radioligand bound in test [3] came out at 13%. For the same compound, the Ratio in [7] was more than 5.4.
As for `CCSC[C@H]1O[C@@H](n2cnc3c(NCc4ccccc4)ncnc32)[C@H](O)[C@@H]1O`, the Displacement in test [9] was determined as 29%; in [10], 38%. The Radioligand bound in test [3] came out at 19%. Besides, the Ki in test [6] stood at 0.159 µM. Besides, in test [7], the Ratio is more than 62.9.
In the same order, the values of `CC(C)SC[C@H]1O[C@@H](n2cnc3c(NCc4cccc(I)c4)ncnc32)[C@H](O)[C@@H]1O` are 35%, 45%, 16%, 0.0463 µM and more than 216.
The matching figures for `CCCSC[C@H]1O[C@@H](n2cnc3c(NCc4cccc(I)c4)ncnc32)[C@H](O)[C@@H]1O`: 42%, 42%, 10%, 0.0443 µM and more than 226.
`O[C@H]1[C@@H](c2ccon2)OC(n2cnc3c(NCc4cccc(I)c4)nc(Cl)nc32)[C@H]1O` (some centres undefined): the Ki in test [6] amounted to 0.0078 µM.
For the compound `CCCSC[C@H]1O[C@@H](n2cnc3c(NCc4ccccc4)ncnc32)[C@H](O)[C@@H]1O`, the Ki in [1] worked out at 7.99 µM; in test [2], 5.87 µM; in test [6], 0.647 µM. This compound displayed a Radioligand bound in test [3] of 7%. Further, the Ratio in test [7] amounted to 8.7.
In turn, `CCNC(=O)[C@H]1O[C@@H](n2cnc3c(N)ncnc32)[C@H](O)[C@@H]1O` gave a Radioligand bound in test [3] of 100%. Moreover, in [5], the inhibition is 100%.
Compound `CCCSC[C@H]1O[C@@H](n2cnc3c(NC4CCCC4)ncnc32)[C@H](O)[C@@H]1O` displayed a Ki in [6] of 0.193 µM. Moreover, the Ratio in test [7] worked out at 0.39.
Regarding `CNC(=O)C[C@H]1OC(n2cnc3c(NCc4cccc(I)c4)nc(Cl)nc32)[C@@H](O)[C@H]1O` (some centres undefined), in test [11], affinity was put at a Ki of 0.00033 µM.
Turning to `OC[C@H]1O[C@@H](n2cnc3c(NC4CCCC4)ncnc32)[C@H](O)[C@@H]1O` [N6-CYCLOPENTYLADENOSINE], the Ki in test [6] was 0.12 µM.
As to `OC[C@H]1O[C@@H](n2cnc3c(NCc4ccccc4)ncnc32)[C@H](O)[C@@H]1O` [N6-BENZYLADENOSINE], the Ki in [1] was found to be 0.733 µM; in test [6], 0.55 µM. In addition, the Radioligand bound in [3] turned out to be 81%. Moreover, the EC50 in test [4] turned out to be 0.384 µM. Besides, the inhibition in test [5] came out at 82%; in test [8] it was 94%.
`OC[C@H]1O[C@@H](n2cnc3c(NCc4cccc(I)c4)ncnc32)[C@H](O)[C@@H]1O` yielded a Radioligand bound in test [3] of 56%. The values for the inhibition in [5] and in [8] were 86% and 91%, respectively.
In turn, `O[C@@H]1[C@H](O)[C@@H](CCl)O[C@H]1n1cnc2c(NC3CCCC3)ncnc21` yielded a Ki in [6] of 1.29 µM. For the same compound, in test [7], the Ratio came out at 0.007.
In turn, `COc1cccc(CNc2nc(Cl)nc3c2ncn3C2O[C@H](c3ccon3)[C@H](O)[C@@H]2O)c1` (some centres undefined) showed a Ki in [6] of 0.031 µM.
For the compound `CCSC[C@H]1O[C@@H](n2cnc3c(NC4CCCC4)ncnc32)[C@H](O)[C@@H]1O`, the Ki in test [6] stood at 0.09 µM. Also, the Ratio in test [7] is 0.5.
In the case of `CC(C)SC[C@H]1O[C@@H](n2cnc3c(NCc4ccccc4)ncnc32)[C@H](O)[C@@H]1O`, the Displacement amounted to 14% in test [9] and 6% in test [10]. Also, the Radioligand bound in [3] was 22%. The compound also displayed a Ki in test [6] of 0.211 µM. For the same compound, the Ratio in [7] is more than 47.4.
In the case of `CCSC[C@H]1O[C@@H](n2cnc3c(NCc4cccc(I)c4)ncnc32)[C@H](O)[C@@H]1O`, the results for the Ki in [1], in [2] and in test [6] were 1.08 µM, 0.72 µM and 0.0175 µM, respectively. For the same compound, the Radioligand bound in test [3] was 21%. In addition, the Ratio in test [7] was 41.1.
Regarding `CNC(=O)[C@H]1OC(n2cnc3c(NCc4ccccc4)ncnc32)[C@@H](O)[C@H]1O` (some centres undefined), the Ki in test [6] was 0.041 µM.
Regarding `CSC[C@H]1O[C@@H](n2cnc3c(NC4CCCC4)ncnc32)[C@H](O)[C@@H]1O`, in [6], the Ki came to 0.074 µM. Besides, the Ratio in test [7] turned out to be 0.8.
In the case of `CC(C)SC[C@H]1O[C@@H](n2cnc3c(NC4CCCC4)ncnc32)[C@H](O)[C@@H]1O`, the Ki was 10.2 µM in [12], 0.041 µM in test [2] and 0.137 µM in test [6]. The Ratio in test [7] stood at 0.3.
Take `O[C@@H]1[C@H](O)[C@@H](CCl)O[C@H]1n1cnc2c(NCc3cccc(I)c3)ncnc21`: the values for the Ki in [1], in [2] and in [6] were 0.457 µM, 0.27 µM and 0.188 µM, respectively. In test [3], this compound registered a Radioligand bound of 8%. Also, in test [7], the Ratio was determined as 1.4.

The values are drawn from ChEMBL document CHEMBL1132635, “N6,5'-Disubstituted adenosine derivatives as partial agonists for the human adenosine A3 receptor” (J Med Chem, 1999).
